How the values were obtained:
[1] = target: human glucagon receptor (GCGR) (Homo sapiens (Human), UniProt P47871); assay: Inhibition of 125I-glucagon binding to membranes from HEK293 cells expressing the human glucagon receptor; conditions: membranes of hGluc-1 HEK cells, 125I-glucagon 0.3 nM
Experimental: Inhibition ^125I-Glucagon Binding to Membranes from HEK293 Cells Expressing the Human Glucagon Receptor (GCGR)
Full-length human GCGR (Accession Number: NM000160) subcloned into pcDNA3.1 was stably transfected into HEK293 cells (hGluc-1 HEK) and maintained under G418 selection (500 μg/mL). Cell cultures were maintained in DMEM/F12 media supplemented with 10% FBS and 1% GlutaMax. Membranes were prepared from these cells as follows: cells were harvested from T225 flasks and re-suspended in hypotonic lysis buffer, 50 mM HEPES pH 7.4 supplemented with Complete Protease inhibitors (Boehringer Mannheim, Indianapolis, Ind.). Cells were dounced 20 times on ice and spun at 700×g to remove nuclei and unlysed cells. The resulting pellet was re-suspended in hypotonic lysis buffer and the above step was repeated. Supernatants from the low speed centrifugation were combined and subsequently spun at 100K×g for 1 hr at 4° C. and the resulting pellet was re-suspended in buffer containing 50 mM HEPES pH 7.4 and 10% sucrose and the protein concentration was adjusted at 1 mg/mL as determined in the BCA assay. Membranes were aliquoted and stored at −80° C. The binding assay was performed by a filtration method in a 384 well format. Membranes at a final protein concentration of 6 μg/well were incubated with ^125I-glucagon at 0.3 nM and in the presence of compound for 2 hours at room temperature in a total reaction volume of 40 μL per well. Assay buffer consisted of 50 mM HEPES, pH 7.4, 5 mM MgCl2, 1 mM CaCl2 and 0.2% BSA. 30 μL of the reaction was then transferred to PEI treated filter plates and followed by filter aspiration. Plates were then washed 5× and allowed to dry at room temperature overnight. The next day the bottom of the plate was covered with seal tape and scintillant was added. Total counts retained by the filters were quantified with a Top Count instrument. IC50's were generated by using a non-linear regression macro driven in Excel and converted to K's.

human GCGR = human GCGR (Homo sapiens (Human), UniProt P47871); assay: Cellular functional assay, cAMP readout (glucagon-stimulated cAMP in HEK293 cells expressing human GCGR); format: cell-based; conditions: hGluc-1 HEK cells
Experimental: IC50 Values in Cellular Functional Assays: cAMP Readout
Full-length human GCGR (Accession Number: NM000160) subcloned into pcDNA3.1 was stably transfected into HEK293 cells (hGluc-1 HEK) and maintained under G418 selection (500 μg/mL). Cell cultures were maintained in DMEM/F12 media supplemented with 10% FBS and 1% GlutaMax. Glucagon stimulated cAMP was quantified using LANCE technology as per manufacturer instructions. On the day of the experiment, spent media was removed and cells were washed with Hank's Buffered Saline solution (HBSS) and cells were harvested with non-enzymatic cell dissociation solution, then washed once with HBSS. Cells were re-suspended in stimulation buffer at a concentration of 0.83×10^6 cells/ml and cAMP detection antibody was added. 6 μl/well of this solution was then dispensed in a 384 well plate (cell density 5000 cells/well). Test compound was serially diluted in DMSO and 50 nl were dispensed on top of the cell solution and allowed to incubate for 30 minutes. 6 μl of a 2× glucagon solution (final concentration in assay […]) was then added and the reaction was terminated after 5 minutes with the addition of detection mix. The mixture was incubated, protected from light for 1.5 h. cAMP levels were quantified by TR-FRET in an EnVision instrument against a known standard. IC50's were generated by using a non-linear regression macro driven in Excel and converted to K, values.

[2] = meta-substituted comparative compounds (Table 3)
[3] = 2 hours room temperature, IC50 converted to Ki, average if tested more than once
[4] = LANCE TR-FRET, IC50 converted to Ki, average if tested more than once

human GCGR, sequence (P47871 26-477): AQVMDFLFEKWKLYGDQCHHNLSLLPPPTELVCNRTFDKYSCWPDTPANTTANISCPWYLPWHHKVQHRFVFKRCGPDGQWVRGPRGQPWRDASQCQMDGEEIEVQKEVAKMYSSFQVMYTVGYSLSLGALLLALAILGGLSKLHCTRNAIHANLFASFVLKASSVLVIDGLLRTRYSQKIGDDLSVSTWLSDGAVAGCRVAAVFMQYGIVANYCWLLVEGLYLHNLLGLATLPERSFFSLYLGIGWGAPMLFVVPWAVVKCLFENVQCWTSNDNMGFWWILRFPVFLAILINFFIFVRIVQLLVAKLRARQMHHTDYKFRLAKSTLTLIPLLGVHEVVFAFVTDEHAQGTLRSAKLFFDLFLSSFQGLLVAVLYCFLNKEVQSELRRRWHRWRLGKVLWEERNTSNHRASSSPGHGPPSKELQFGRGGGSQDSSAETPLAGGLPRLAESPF
human glucagon receptor (GCGR), sequence (P47871 26-477): as above

Row | Compound | Ki [1, 2] [µM] | Ki (human GCGR; [2]) [µM] | Ki [1, 3] [µM] | Ki (human GCGR; [4]) [µM]
1 | O=C(O)CCNC(=O)c1ccc(-c2cc(Cl)cc(CNc3ccc(-c4ccc(F)cc4)cc3)c2)cn1 [Compound M1, 3-(5-(3-chloro-5-(((4′-fluoro-[1,1′-biphenyl]-4-yl)amino)methyl)phenyl)picolinamido)propanoic acid, reference compound] | > 2.7 | > 10.4 |  | 
2 | O=C(O)CCNC(=O)c1ccc(-c2ccc(Cl)cc2CNc2ccc(-c3ccc(Cl)cc3)cc2)cn1 [Compound 4, 3-(5-(4-chloro-2-(((4′-chloro-[1,1′-biphenyl]-4-yl)amino)methyl)phenyl)picolinamido)propanoic acid] |  |  | 0.0649 | 0.21
3 | O=C(O)CCNC(=O)c1ccc(-c2cc(C(F)(F)F)ccc2CNc2ccc(-c3ccc(Cl)cc3)cc2)cn1 [Compound 44, 3-(5-(2-(((4′-chloro-[1,1′-biphenyl]-4-yl)amino)methyl)-5-(trifluoromethyl)phenyl)picolinamido)propanoic acid] |  |  | 0.0184 | 0.0601
4 | N#Cc1cc(NCc2cc(F)c(F)cc2-c2ccc(C(=O)NCCC(=O)O)nc2)ccc1-c1ccc(Cl)c(C(F)(F)F)c1 [Compound 113, 3-(5-(2-(((4′-chloro-2-cyano-3′-(trifluoromethyl)-[1,1′-biphenyl]-4-yl)amino)methyl)-4,5-difluorophenyl)picolinamido)propanoic acid] |  |  | 0.0583 | 0.65
5 | O=C(O)CCNC(=O)c1ccc(-c2cc(Cl)ccc2CNc2ccc(-c3ccc(Cl)cc3Cl)cc2F)cn1 [Compound 11, 3-(5-(5-chloro-2-(((2′,4′-dichloro-3-fluoro-[1,1′-biphenyl]-4-yl)amino)methyl)phenyl)picolinamido)propanoic acid] |  |  | 0.0412 | 0.265
6 | O=C(O)CCNC(=O)c1ccc(-c2cc(Cl)ccc2CNc2ccc(-c3ccc(F)c(C(F)(F)F)c3)c(Cl)c2)cn1 [Compound 144, 3-(5-(5-chloro-2-(((2-chloro-4′-fluoro-3′-(trifluoromethyl)-[1,1′-biphenyl]-4-yl)amino)methyl)phenyl)picolinamido)propanoic acid] |  |  | 0.0124 | 0.023
7 | Cc1cc(C(F)(F)F)ccc1-c1ccc(NCc2ccc(C(F)(F)F)cc2-c2ccc(C(=O)NCCC(=O)O)nc2)cc1Cl [Compound 43, 3-(5-(2-(((2-chloro-2′-methyl-4′-(trifluoromethyl)-[1,1′-biphenyl]-4-yl)amino)methyl)-5-(trifluoromethyl)phenyl)picolinamido)propanoic acid] |  |  | 0.0172 | 0.0219
8 | O=C(O)CCNC(=O)c1ccc(-c2cc(C3=CCCCC3)ccc2CNc2ccc(-c3ccc(F)cc3)cc2)cn1 [Compound 174, 3-(5-(4-(((4′-fluoro-[1,1′-biphenyl]-4-yl)amino)methyl)-2′,3′,4′,5′-tetrahydro-[1,1′-biphenyl]-3-yl)picolinamido)propanoic acid] |  |  | 0.0183 | 0.11
9 | Cc1ccc(C(=O)Nc2ccc(-c3ccc(Cl)cc3)cc2)c(-c2ccc(C(=O)NCCC(=O)O)nc2)c1 [Compound 145, 3-(5-(2-((4′-chloro-[1,1′-biphenyl]-4-yl)carbamoyl)-5-methylphenyl)picolinamido)propanoic acid] |  |  | 0.0363 | 0.0681
10 | O=C(O)CCNC(=O)c1ccc(-c2ccc(Cl)cc2CNc2ccc(-c3ccc(Cl)cc3Cl)cc2)cn1 [Compound 5, 3-(5-(4-chloro-2-(((2′,4′-dichloro-[1,1′-biphenyl]-4-yl)amino)methyl)phenyl)picolinamido)propanoic acid] |  |  | 0.0671 | 0.181
11 | Cc1cc(-c2ccc(NCc3ccc(Cl)cc3-c3ccc(C(=O)NCCC(=O)O)nc3)cc2Cl)ccc1F [Compound 139, 3-(5-(5-chloro-2-(((2-chloro-4′-fluoro-3′-methyl-[1,1′-biphenyl]-4-yl)amino)methyl)phenyl)picolinamido)propanoic acid] |  |  | 0.0291 | 0.12
12 | O=C(O)CCNC(=O)c1ccc(-c2cc(F)c(F)cc2CNc2ccc(-c3ccc(Cl)cc3)c(Cl)c2)cn1 [Compound 103, 3-(5-(2-(((2,4′-dichloro-[1,1′-biphenyl]-4-yl)amino)methyl)-4,5-difluorophenyl)picolinamido)propanoic acid] |  |  | 0.0229 | 0.0689
13 | N#Cc1cc(NCc2cc(F)c(F)cc2-c2ccc(C(=O)NCCC(=O)O)nc2)ccc1-c1ccc(Cl)cc1F [Compound 111, 3-(5-(2-(((4′-chloro-2-cyano-2′-fluoro-[1,1′-biphenyl]-4-yl)amino)methyl)-4,5-difluorophenyl)picolinamido)propanoic acid] |  |  | 0.0696 | 0.18
14 | O=C(O)CCNC(=O)c1ccc(-c2cc(F)ccc2CNc2ccc(-c3ccc(Cl)cc3Cl)c(F)c2)cn1 [Compound 57, 3-(5-(2-(((2′,4′-dichloro-2-fluoro-[1,1′-biphenyl]-4-yl)amino)methyl)-5-fluorophenyl)picolinamido)propanoic acid] |  |  | 0.0742 | 0.205
15 | O=C(O)CCNC(=O)c1ccc(-c2cc(Cl)ccc2CNc2ccc(-c3cccc(F)c3)cc2)cn1 [Compound 134, 3-(5-(5-chloro-2-(((3′-fluoro-[1,1′-biphenyl]-4-yl)amino)methyl)phenyl)picolinamido)propanoic acid] |  |  | 0.0383 | 0.6
16 | O=C(O)CCNC(=O)c1ccc(-c2cc(Cl)ccc2CNc2ccc(-c3ccc(F)cc3)cc2)cn1 [Compound 15, 3-(5-(5-chloro-2-(((4′-fluoro-[1,1′-biphenyl]-4-yl)amino)methyl)phenyl)picolinamido)propanoic acid] |  |  | 0.0339 | 0.0906
17 | O=C(O)CCNC(=O)c1ccc(-c2cc(Cl)ccc2CNc2ccc(-c3cccc(C(F)(F)F)c3)cc2)cn1 [Compound 130, 3-(5-(5-chloro-2-(((3′-(trifluoromethyl)-[1,1′-biphenyl]-4-yl)amino)methyl)phenyl)picolinamido)propanoic acid] |  |  | 0.0626 | 0.39
18 | O=C(O)CCNC(=O)c1ccc(-c2cc(Cl)ccc2CNc2ccc(-c3ccc(F)cc3C(F)(F)F)c(Cl)c2)cn1 [Compound 142, 3-(5-(5-chloro-2-(((2-chloro-4′-fluoro-2′-(trifluoromethyl)-[1,1′-biphenyl]-4-yl)amino)methyl)phenyl)picolinamido)propanoic acid] |  |  | 0.0313 | 0.225
19 | O=C(O)CCNC(=O)c1ccc(-c2cc(C(F)(F)F)ccc2CNc2ccc(-c3ccc(Cl)cc3F)cc2)cn1 [Compound 40, 3-(5-(2-(((4′-chloro-2′-fluoro-[1,1′-biphenyl]-4-yl)amino)methyl)-5-(trifluoromethyl)phenyl)picolinamido)propanoic acid] |  |  | 0.0263 | 0.0642
20 | O=C(O)CCNC(=O)c1ccc(-c2cc(C(F)(F)F)ccc2CNc2ccc(-c3cccc(C(F)(F)F)c3Cl)cc2)cn1 [Compound 41, 3-(5-(2-(((2′-chloro-3′-(trifluoromethyl)-[1,1′-biphenyl]-4-yl)amino)methyl)-5-(trifluoromethyl)phenyl)picolinamido)propanoic acid] |  |  | 0.0204 | 0.0283
21 | O=C(O)CCNC(=O)c1ccc(-c2cc(-c3ccccc3)ccc2CNc2ccc(-c3ccc(Cl)cc3Cl)cc2)cn1 [Compound 173, 3-(5-(4-(((2′,4′-dichloro-[1,1′-biphenyl]-4-yl)amino)methyl)-[1,1′-biphenyl]-3-yl)picolinamido)propanoic acid] |  |  | 0.027 | 0.0675
22 | O=C(O)CCNC(=O)c1ccc(-c2cc(Cl)ccc2CNc2ccc(-c3ccc(F)cc3C(F)(F)F)cc2)cn1 [Compound 149, 3-(5-(5-chloro-2-(((4′-fluoro-2′-(trifluoromethyl)-[1,1′-biphenyl]-4-yl)amino)methyl)phenyl)picolinamido)propanoic acid] |  |  | 0.04 | 0.43

Source: patent US8748624B2, “Picolinamido-propanoic acid derivatives useful as glucagon receptor antagonists” (Janssen Pharmaceutica NV, priority 2011, dated 2014)
